No end group written: not given here. sulfated CM‑chitin = sulfated carboxymethyl-chitin (CM-chitin), conjugated to the peptide; sulfated succinylated CM‑chitin = sulfated succinylated CM-chitin; trimellityl CM‑chitin = trimellityl derivative of CM-chitin; succinylated CM‑Chitin = succinylated CM-chitin; CM‑Chitin = carboxymethyl chitin
Assays:
[1] = system: vitronectin; assay: Cell adhesion-inhibitory test against vitronectin (competitive assay, number of adhered cells); type: cell-based, human; conditions: endothelium cells of blood vessel, 37° C., one hour, 0 control 249
Text: (§1) A method for determining the activity of the CM-chitin derivatives of the present invention for inhibiting adhesion of cells to fibronectin or vitronectin will be described below. The competitive assays used herein have widely been employed tin the field of biochemistry and are detailed in, for instance, "Method in Enzymology", 1981, 82, pp. 803-831; and J. P. KOKAI Nos. Hei 1-309682 and Hei 2-174797.
(§2) Commercially available fibroneotin (derived from human; purchased from Seikaqaku Kogyo K. K.) and vitronectin (derived from human; purchased from Funakoshi Co., Ltd.) each was diluted to 1.0 μ1/ml and 2.0 μ1/ml with PBS (NaH2 PO4 0.005 M+NaCl 0.07 M), 0.5 ml of the resulting diluted solution was dispensed into a plastic plate having 24 wells and incubated at 37° C. overnight to perform coating of the plate. Then bovine serum albumin (BSA 1%) was added followed by incubation at 37° C. for one hour for inhibiting the occurrence of nonspecific adsorption, then washing with PBS in the usual manner and sufficient drainage to give an adsorption plate.
[…] Each of the solutions (0.25 ml) was dispensed to the plate prepared above, 0.25 ml of a suspension of endothelium cells of blood vessel (4×10^6 cells/ml) was added to the plate and incubated at 37° C. for one hour to thus cause cohesion of the cells. The plate was washed three times with DMEM medium to remove non-adhesive cells, then the adhered cells were peeled off with a 0.025% EDTA trypsin solution and stained with a 2% Trypan Blue solution to determine the number of the adhered cells.

[2] = system: fibronectin; assay: Cell adhesion-inhibitory test against fibronectin (competitive assay, number of adhered cells); type: cell-based, human; conditions: endothelium cells of blood vessel, 37° C., one hour, 0 mg/ml control 160
Text: as §1, §2
A CM-chitin derivative obtained through lyophilization was diluted with Dulbecco's Modified Eagles Medium (hereunder referred to as "DMEM") to give solutions of the CM-chitin derivative having concentrations of 0, 0.25, 0.5, 1.0 and 1.5 mg/ml respectively. Each of the solutions (0.25 ml) was dispensed to the plate prepared above, 0.25 ml of a suspension of endothelium cells of blood vessel (4×10^6 cells/ml) was added to the plate and incubated at 37° C. for one hour to thus cause cohesion of the cells. The plate was washed three times with DMEM medium to remove non-adhesive cells, then the adhered cells were peeled off with a 0.025% EDTA trypsin solution and stained with a 2% Trypan Blue solution to determine the number of the adhered cells.

[3] = system: human plasma rich in platelet; assay: Platelet coagulation-inhibitory activity in vitro, transmittance by aggregometer; type: cell-based; conditions: 37° C., 3 minutes preincubation; for Platelet Coagulation-Inhibitory Action IC50, ADP Stimulation: ADP stimulation (50 μM ADP solution); for Platelet Coagulation-Inhibitory Action IC50, Collagen Stimulation: collagen stimulation (200 μg/ml collagen solution)
Procedure: The platelet coagulation-inhibitory effect of the CM-chitin derivative of the present invention was assayed, in vitro, using human plasma rich in platelet. The experimental method will be described below.
To fresh human blood, there was added 1/9 volume of a 3.8% sodium citrate solution, the resulting mixture was centrifuged (1000 rpm; for 10 minutes) and the upper layer was separated as a plasma rich in platelet. A lyophilized CM-chitin derivative was dissolved in physiological saline to give a plurality of solutions having various concentrations ranging from 0 to 1.5 mg/ml. Each of the solutions (25 μ1) was added to 200 µl of the plasma, incubated at 37° C. for 3 minutes, then a 50 μM of ADP (adenosine diphosphate) solution or a 200 μg/ml collagen solution was added to determine the extent of coagulation in terms of transmittance determined by an aggregometer.
Rate of Coagulation Inhibition=(1-T/T .)×100%
T . : transmittance observed when a salt of CM-chitin derivative was not added.
T : transmittance observed when a salt of CM-chitin derivative was added.

[4] = concentration 10 mg/ml (so in the source)
[5] = concentration 50 mg/ml (so in the source)
[6] = concentration 100 mg/ml (so in the source)
[7] = concentration 300 mg/ml (so in the source)

Row | Substance | Platelet Coagulation-Inhibitory Action IC50, ADP Stimulation [3] [µg/mL] | Platelet Coagulation-Inhibitory Action IC50, Collagen Stimulation [3] [µg/mL] | Cell Adhesion-Inhibitory effect Against Vitronectin (number of adhered cells) [1, 4] [cell/well] | Cell Adhesion-Inhibitory effect Against Vitronectin (number of adhered cells) [1, 5] [cell/well] | Cell Adhesion-Inhibitory effect Against Vitronectin (number of adhered cells) [1, 6] [cell/well] | Cell Adhesion-Inhibitory effect Against Vitronectin (number of adhered cells) [1, 7] [cell/well] | Cell Adhesion-Inhibitory effect Against Fibronectin (number of adhered cells) ([2]; concentration 0.5 mg/ml) [cell/well] | Cell Adhesion-Inhibitory effect Against Fibronectin (number of adhered cells) ([2]; concentration 1.0 mg/ml) [cell/well] | Cell Adhesion-Inhibitory effect Against Fibronectin (number of adhered cells) ([2]; concentration 1.5 mg/ml) [cell/well] | Cell Adhesion-Inhibitory effect Against Fibronectin (number of adhered cells) ([2]; concentration .25 mg/ml) [cell/well]
1 | Succinylated CM-Chitin-(Arg-Gly-Asp)2 ({succinylated CM‑Chitin}-RGDRGD) [CM--chitin derivative-10] | 20 | 13 | 136 | 86 | 71 | 43 | 110 | 87 | 73 | 122
2 | Itaconyl Derivative of CM-Chitin Arg-Gly-Asp-Ser (RGDS; also: conjugated to itaconyl CM-chitin) [CM--chitin derivative-5] | 17 | 12 | 129 | 91 | 80 | 48 | 105 | 86 | 72 | 136
3 | Phthaloyl derivative of CM-Chitin Arg-Gly-Asp-Ser (RGDS; also: conjugated to phthaloyl CM-chitin) [CM--chitin derivative-4] | 29 | 15 | 145 | 90 | 67 | 45 | 121 | 80 | 67 | 141
4 | Sulfated CM-Chitin-Gly-Arg-Gly-Asp-Ser ({sulfated CM‑chitin}-GRGDS) [CM--chitin derivative-14] | 12 | 3 | 107 | 78 | 43 | 34 | 93 | 68 | 41 | 111
5 | CM-Chitin Gly-Arg-Gly-Asp-Ser (GRGDS; also: conjugated to CM-chitin) [CM--chitin derivative-7] | 30 | 16 | 143 | 85 | 79 | 55 | 98 | 84 | 71 | 119
6 | Trimellityl Derivative of CM-Chitin Arg-Gly-Asp-Ser ({trimellityl CM‑chitin}-RGDS) [CM--chitin derivative-6] | 26 | 11 | 133 | 98 | 71 | 56 | 107 | 93 | 66 | 127

More lines, main results first:

Row | Platelet Coagulation-Inhibitory Action IC50, ADP Stimulation [3] [µg/mL] | Platelet Coagulation-Inhibitory Action IC50, Collagen Stimulation [3] [µg/mL] | Substance | Cell Adhesion-Inhibitory effect Against Vitronectin (number of adhered cells) [1, 4] [cell/well] | Cell Adhesion-Inhibitory effect Against Vitronectin (number of adhered cells) [1, 5] [cell/well] | Cell Adhesion-Inhibitory effect Against Vitronectin (number of adhered cells) [1, 6] [cell/well] | Cell Adhesion-Inhibitory effect Against Vitronectin (number of adhered cells) [1, 7] [cell/well] | Cell Adhesion-Inhibitory effect Against Fibronectin (number of adhered cells) ([2]; concentration 0.5 mg/ml) [cell/well] | Cell Adhesion-Inhibitory effect Against Fibronectin (number of adhered cells) ([2]; concentration 1.0 mg/ml) [cell/well] | Cell Adhesion-Inhibitory effect Against Fibronectin (number of adhered cells) ([2]; concentration 1.5 mg/ml) [cell/well] | Cell Adhesion-Inhibitory effect Against Fibronectin (number of adhered cells) ([2]; concentration .25 mg/ml) [cell/well]
7 | 14 | 5 | CM-chitin-Arg-Gly-Asp-Ser-Gly-NH2 ({CM‑Chitin}-RGDSG-NH2; also: conjugated to CM-chitin) [CM--chitin derivative-17] | 114 | 76 | 48 | 33 | 84 | 61 | 35 | 99
8 | 15 | 6 | Sulfated Succinylated CM-Chitin-Arg-Gly-Asp-Ser ({sulfated succinylated CM‑chitin}-RGDS) [CM--chitin derivative-15] | 115 | 69 | 54 | 38 | 89 | 65 | 37 | 105
9 | 21 | 10 | CM-Chitin Arg-Gly-Asp-Ser (RGDS; also: conjugated to CM-chitin) [CM--chitin derivative-18] | 125 | 83 | 56 | 44 | 101 | 75 | 52 | 133
